In US10793563B2, “GCN2 inhibitors and uses thereof” (Merck Patent GmbH, priority 2018, dated 2020):
One block for each compound: values may come before it.

How the values were obtained:
[1] = target: intracellular GCN2 (phosphorylation of the GCN2 substrate eIF2α) (Homo sapiens (Human), UniProt Q9P2K8); assay: GCN2 Cellular Inhibition Assay (AlphaScreen SureFire P-eIF2α Ser51, borrelidin-treated U2OS cells); format: cell-based; conditions: 10 μM borrelidin, 1 h, phosphorylated eIF2α Ser51, read-out: GCN2 Biomarker (IC50)
Outline: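 Phospho-eIF2α (Ser51) measured by AlphaScreen SureFire in lysates of U2OS cells stimulated 1 h at 37 °C with 10 μM borrelidin alongside compound, 4-fold dilutions from 40 μM. Inhibition expressed as percent relative to borrelidin-alone controls.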

GCN2 kinase = GCN2 kinase (Homo sapiens (Human), UniProt Q9P2K8); assay: GCN2 Enzyme Inhibition Assay (Transcreener ADP2 fluorescence polarization); format: biochemical; conditions: 280 μM ATP, 200 μM (RS)7 peptide, 4 nM GCN2, 25° C.; for Ki: Ki(app)
Outline: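 At 25 °C, GCN2 kinase (typical final concentration 4 nM) and (RS)7 peptide in Tris-HCl pH 7.5 buffer with MgCl2, NaCl and DTT were preincubated with compound for 10 min, then ATP was added for a 1 h reaction. ADP was read by FP with antibody/Alexa633 tracer. Non-linear tight-binding analysis gave IC50 and apparent Ki.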

Sequence of intracellular GCN2 (phosphorylation of the GCN2 substrate eIF2α) (Q9P2K8 whole entry): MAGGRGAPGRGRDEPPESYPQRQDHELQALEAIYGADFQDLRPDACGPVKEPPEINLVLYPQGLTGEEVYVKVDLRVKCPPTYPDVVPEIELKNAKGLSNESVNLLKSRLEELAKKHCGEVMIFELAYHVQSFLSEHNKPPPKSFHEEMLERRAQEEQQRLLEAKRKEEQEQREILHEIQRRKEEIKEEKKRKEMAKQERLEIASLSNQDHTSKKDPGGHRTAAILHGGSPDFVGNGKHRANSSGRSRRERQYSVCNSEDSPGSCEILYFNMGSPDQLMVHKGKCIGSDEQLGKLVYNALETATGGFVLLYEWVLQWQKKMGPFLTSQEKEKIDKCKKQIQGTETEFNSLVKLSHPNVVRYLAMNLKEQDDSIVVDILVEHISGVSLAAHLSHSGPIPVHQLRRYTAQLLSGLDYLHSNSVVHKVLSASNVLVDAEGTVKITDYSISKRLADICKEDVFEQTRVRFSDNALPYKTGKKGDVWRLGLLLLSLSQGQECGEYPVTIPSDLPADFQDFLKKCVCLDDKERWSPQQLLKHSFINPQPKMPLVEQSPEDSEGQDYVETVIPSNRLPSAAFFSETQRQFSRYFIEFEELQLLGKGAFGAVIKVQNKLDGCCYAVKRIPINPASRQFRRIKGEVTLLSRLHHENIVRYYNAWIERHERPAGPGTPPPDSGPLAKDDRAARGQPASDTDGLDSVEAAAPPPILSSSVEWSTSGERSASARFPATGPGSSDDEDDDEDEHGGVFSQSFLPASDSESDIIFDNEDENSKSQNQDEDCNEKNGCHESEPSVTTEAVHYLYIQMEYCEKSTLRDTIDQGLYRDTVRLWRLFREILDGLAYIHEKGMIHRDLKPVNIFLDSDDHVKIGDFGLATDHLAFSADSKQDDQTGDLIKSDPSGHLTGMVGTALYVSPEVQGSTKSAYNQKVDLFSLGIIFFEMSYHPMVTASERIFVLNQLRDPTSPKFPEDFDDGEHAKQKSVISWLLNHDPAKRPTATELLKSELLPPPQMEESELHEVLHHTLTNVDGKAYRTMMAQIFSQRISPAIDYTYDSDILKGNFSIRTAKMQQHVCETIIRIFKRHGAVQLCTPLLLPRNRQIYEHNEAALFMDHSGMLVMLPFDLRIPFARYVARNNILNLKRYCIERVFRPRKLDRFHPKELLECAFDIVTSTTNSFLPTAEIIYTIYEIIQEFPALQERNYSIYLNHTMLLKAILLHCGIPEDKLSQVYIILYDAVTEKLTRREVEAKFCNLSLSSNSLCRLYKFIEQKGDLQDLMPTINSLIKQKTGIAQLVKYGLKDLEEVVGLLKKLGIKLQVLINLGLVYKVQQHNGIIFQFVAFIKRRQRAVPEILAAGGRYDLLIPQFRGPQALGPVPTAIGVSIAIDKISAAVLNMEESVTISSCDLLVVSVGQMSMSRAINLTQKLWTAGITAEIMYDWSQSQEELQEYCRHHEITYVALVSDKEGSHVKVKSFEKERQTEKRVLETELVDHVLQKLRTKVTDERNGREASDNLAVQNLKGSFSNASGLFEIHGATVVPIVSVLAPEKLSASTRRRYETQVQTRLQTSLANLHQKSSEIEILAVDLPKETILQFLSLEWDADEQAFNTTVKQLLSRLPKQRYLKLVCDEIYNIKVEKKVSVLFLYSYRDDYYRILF
Sequence of GCN2 kinase (Q9P2K8 whole entry): as above

Structure (SMILES): CS(=O)(=O)N1CC2(CN(c3ccnc(-c4cnc5ccc(C(F)(F)F)cn45)n3)CCO2)C1 [I-447, 2-(methylsulfonyl)-8-(2-(6-(trifluoromethyl)imidazo[1,2-a]pyridin-3-yl)pyrimidin-4-yl)-5-oxa-2,8-diazaspiro[3.5]nonane]
IC50 [1]: 500 to 5000 nM
IC50 (GCN2 kinase): 10 to 100 nM

Structure (SMILES): CC(C)(C)OC(=O)N1CC2(C1)CN(c1ccnc(-c3cnc4ccc(C(F)(F)F)cn34)n1)CCO2 [I-386, tert-butyl 8-(2-(6-(trifluoromethyl)imidazo[1,2-a]pyridin-3-yl)pyrimidin-4-yl)-5-oxa-2,8-diazaspiro[3.5]nonane-2-carboxylate]
IC50 [1]: 500 to 5000 nM
IC50 (GCN2 kinase): 100 to 1000 nM

Structure (SMILES): NC(=O)[C@@H]1CN(c2ccnc(-c3cnc4ccc(C(F)(F)F)cn34)n2)CCN1C1CC1 [I-324, (S)-1-cyclopropyl-4-(2-(6-(trifluoromethyl)imidazzo[1,2-a]pyridin-3-yl)pyrimidin-4-yl)piperazine-2-carboxamide]
IC50 [1]: > 5000 nM
IC50 (GCN2 kinase): 100 to 1000 nM

Structure (SMILES): Cc1cc(-c2cnc3ccc(N4CC(F)(F)C4)cn23)nc(N2C[C@@H](C)C[C@H](c3cn[nH]c3)C2)n1 [I-287, 6-(3,3-difluoroazetidin-1-yl)-3-(6-methyl-2-((3 S, 5R)-3-methyl-5-(1H-pyrazol-4-yl)piperidin-1-yl)pyrimidin-4-yl)imidazo[1,2-a]pyridine]
IC50 [1]: < 500 nM
IC50 (GCN2 kinase): 10 to 100 nM

Structure (SMILES): Cc1cc(-c2cnc3ccc(Cl)cn23)nc(N2C[C@@H](c3c[nH]nc3C)O[C@@H](C)C2)n1 [I-221, (2S,6R)-4-(4-(6-chloroimidazo[1,2-a]pyridin-3-yl)-6-methylpyrimidin-2-yl)-2-methyl-6-(5-methyl-1H-pyrazol-4-yl)morpholine]
IC50 [1]: < 500 nM
IC50 (GCN2 kinase): < 10 nM

Structure (SMILES): Cc1[nH]ncc1C1N[C@@H](C)CN(c2nccc(-c3cnc4ccc(C(F)(F)F)cn34)n2)[C@H]1C (stereo partly drawn) [I-172, 3-(2-((2S,5S)-2,5-dimethyl-3-(5-methyl-1H-pyrazol-4-yl)piperazin-1-yl)pyrimidin-4-yl)-6-(trifluoromethyl)imidazo[1,2-a]pyridine]
IC50 [1]: < 500 nM
IC50 (GCN2 kinase): 10 to 100 nM

Further lines, results first:

IC50 [1]: < 500 nM
Ki (GCN2 kinase): < 10 nM
Structure (SMILES): FC(F)(F)c1ccc2ncc(-c3nccc(N4CCOC(c5cn[nH]c5)C4)n3)n2c1 (stereo not drawn) [I-45, 2-(1H-Pyrazol-4-yl)-4-(2-(6-(trifluoromethyl)imidazo[1,2-a]pyridin-3-yl)pyrimidin-4-yl)morpholine]

IC50 [1]: < 500 nM
IC50 (GCN2 kinase): < 10 nM
Structure (SMILES): FC(F)(F)c1ccc2ncc(-c3nccc(N4CCN(CC5CC5(F)F)C(c5cn[nH]c5)C4)n3)n2c1 (stereo not drawn) [I-470, 3-(4-(4-((2,2-difluorocyclopropyl)methyl)-3-(1H-pyrazol-4-yl)piperazin-1-yl)pyrimidin-2-yl)-6-(trifluoromethyl)imidazo[1,2-a]pyridine]

IC50 [1]: < 500 nM
Ki (GCN2 kinase): < 10 nM
Structure (SMILES): Fc1cc2ncc(-c3nccc(N4CCOC(c5cn[nH]c5)C4)n3)n2cc1Cl (stereo not drawn) [I-23, 4-[2-(6-Chloro-7-fluoro-imidazo[1,2-a]pyridin-3-yl)pyrimidin-4-yl]-2-(1H-pyrazol-4-yl)morpholine]

IC50 [1]: < 500 nM
Ki (GCN2 kinase): < 10 nM
Structure (SMILES): C[C@H]1CN(c2ccnc(-c3cnc4ccc(C(F)(F)F)cn34)n2)[C@@H](C)[C@@H](c2cn[nH]c2)N1 (stereo in doubt) [I-37, 3-[4-[2,5-Dimethyl-3-(1H-pyrazol-4-yl)piperazin-1-yl]pyrimidin-2-yl]-6-(trifluoromethyl)imidazo[1,2-a]pyridine]

IC50 [1]: < 500 nM
IC50 (GCN2 kinase): < 10 nM
Structure (SMILES): FC(F)(F)c1ccc2ncc(-c3nccc(N4CCNC(c5cn[nH]c5)C4)n3)n2c1 (stereo not drawn) [I-351, 3-(4-(3-(1H-pyrazol-4-yl)piperazin-1-yl)pyrimidin-2-yl)-6-(trifluoromethyl)imidazo[1,2-a]pyridine]

IC50 [1]: < 500 nM
IC50 (GCN2 kinase): 100 to 1000 nM
Structure (SMILES): FC1(F)CCCN(c2ccnc(-c3cnc4ccc(C(F)(F)F)cn34)n2)C1 [I-224, 3-(4-(3,3-difluoropiperidin-1-yl)pyrimidin-2-yl)-6-(trifluoromethyl)imidazo[1,2-a]pyridine]
